Reference: PubChem BioAssay AID1919016 (Molecular Pharmacology Branch, DTP, NCI, 2023)
Values joined by “and” are separate entries in the source; they are usually repeats but may differ in a detail not shown here. Equal entries are not always repeated. One block for each compound: values may come before it.

System: NCI-H196 complex spheroid growth, percent test/control
Experiment: Anticancer human tumor NCI-H196 cell line growth inhibition [AhR];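 note: seven days of drug exposure starting three days after plating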;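 for viability, T/C: 100% = DMSO vehicle control wells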
Settings: for viability, T/C: stronger effect = lower value
How it was run: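 Complex tumor spheroids co-cultured with HUVEC and human MSC stroma; AhR antagonists tested in combination with standard-of-care and investigational agents. Top concentration at or near clinical Cmax (else 10 microM), half-log dilutions; growth expressed as percent test/control.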

[1] = curve of first compound, second compound 0.1 µM
[2] = curve of first compound, second compound 0.316 µM
[3] = curve of first compound, second compound 1 µM
[4] = curve of first compound, second compound 3.16 µM
[5] = curve of first compound, second compound 10 µM
[6] = second compound 0.1 µM, first compound 0.0316 µM
[7] = second compound 0.1 µM, first compound 0.1 µM
[8] = second compound 0.316 µM, first compound 0.0316 µM
[9] = second compound 0.316 µM, first compound 0.1 µM
[10] = second compound 1 µM, first compound 0.0316 µM
[11] = second compound 1 µM, first compound 0.1 µM
[12] = second compound 3.16 µM, first compound 0.0316 µM
[13] = second compound 3.16 µM, first compound 0.1 µM
[14] = second compound 10 µM, first compound 0.0316 µM
[15] = second compound 10 µM, first compound 0.1 µM

- IC50 [1]: > 10000 nM
- IC50 [2]: > 10000 nM
- IC50 [3]: > 10000 nM
- IC50 [4]: > 10000 nM
- IC50 [5]: > 10000 nM
Compound: CC1(C)CCC(CN2CCN(c3ccc(C(=O)NS(=O)(=O)c4ccc(NCC5CCOCC5)c([N+](=O)[O-])c4)c(Oc4cnc5[nH]ccc5c4)c3)CC2)=C(c2ccc(Cl)cc2)C1 + Cc1cncc(-c2nc(NCCc3c[nH]c4ccccc34)c3ncn(C(C)C)c3n2)c1
- viability, T/C [6]: 98.3%
- viability, T/C [7]: 97.8%
- viability, T/C (second compound 0.1 µM, first compound 0.316 µM): 89.4%
- viability, T/C (second compound 0.1 µM, first compound 1 µM): 98.6%
- viability, T/C (second compound 0.1 µM, first compound 3.16 µM): 96.5%
- viability, T/C (second compound 0.1 µM, first compound 10 µM): 107%
- viability, T/C [8]: 106%
- viability, T/C [9]: 96%
- viability, T/C (second compound 0.316 µM, first compound 0.316 µM): 95.7%
- viability, T/C (second compound 0.316 µM, first compound 1 µM): 93.1%
- viability, T/C (second compound 0.316 µM, first compound 3.16 µM): 105%
- viability, T/C (second compound 0.316 µM, first compound 10 µM): 108%
- viability, T/C [10]: 91.7%
- viability, T/C [11]: 101%
- viability, T/C (second compound 1 µM, first compound 0.316 µM): 108%
- viability, T/C (second compound 1 µM, first compound 1 µM): 97.1%
- viability, T/C (second compound 1 µM, first compound 3.16 µM): 103%
- viability, T/C (second compound 1 µM, first compound 10 µM): 105%
- viability, T/C [12]: 115%
- viability, T/C [13]: 105%
- viability, T/C (second compound 3.16 µM, first compound 0.316 µM): 105%
- viability, T/C (second compound 3.16 µM, first compound 1 µM): 108%
- viability, T/C (second compound 3.16 µM, first compound 3.16 µM): 95%
- viability, T/C (second compound 3.16 µM, first compound 10 µM): 104%
- viability, T/C [14]: 87.8%
- viability, T/C [15]: 97.9%
- viability, T/C (second compound 10 µM, first compound 0.316 µM): 107%
- viability, T/C (second compound 10 µM, first compound 1 µM): 118%
- viability, T/C (second compound 10 µM, first compound 3.16 µM): 105%
- viability, T/C (second compound 10 µM, first compound 10 µM): 101%

- IC50 (curve of compound): > 300 nM
Compound: Nc1ncn(C2CC(O)C(CO)S2)c(=O)n1 (configuration not stated)
- viability, T/C (compound 0.000949 µM): 92.7% and 99.1% and 95.1%
- viability, T/C (compound 0.003 µM): 107% and 97.7% and 97.9%
- viability, T/C (compound 0.00949 µM): 109% (2×) and 117%
- viability, T/C (compound 0.03 µM): 109% and 104% and 105%
- viability, T/C (compound 0.0949 µM): 118% and 110% and 107%
- viability, T/C (compound 0.3 µM): 119% and 96.8% and 117%

- IC50 [1]: > 100 nM
- IC50 [2]: > 100 nM
- IC50 [3]: > 100 nM
- IC50 [4]: > 100 nM
- IC50 [5]: > 100 nM
Compound: CC[C@@]1(O)C(=O)OCc2c1cc1n(c2=O)Cc2cc3c(CN(C)C)c(O)ccc3nc2-1 + Cc1ccccc1N=Nc1ccc(NC(=O)c2ccnn2C)c(C)c1
- viability, T/C (second compound 0.1 µM, first compound 0.000316 µM): 92.3%
- viability, T/C (second compound 0.1 µM, first compound 0.001 µM): 111%
- viability, T/C (second compound 0.1 µM, first compound 0.00316 µM): 93.5%
- viability, T/C (second compound 0.1 µM, first compound 0.01 µM): 88.8%
- viability, T/C [6]: 112%
- viability, T/C [7]: 102%
- viability, T/C (second compound 0.316 µM, first compound 0.000316 µM): 105%
- viability, T/C (second compound 0.316 µM, first compound 0.001 µM): 103%
- viability, T/C (second compound 0.316 µM, first compound 0.00316 µM): 98.6%
- viability, T/C (second compound 0.316 µM, first compound 0.01 µM): 90.8%
- viability, T/C [8]: 93.6%
- viability, T/C [9]: 96.9%
- viability, T/C (second compound 1 µM, first compound 0.000316 µM): 101%
- viability, T/C (second compound 1 µM, first compound 0.001 µM): 112%
- viability, T/C (second compound 1 µM, first compound 0.00316 µM): 98.3%
- viability, T/C (second compound 1 µM, first compound 0.01 µM): 98.4%
- viability, T/C [10]: 99.7%
- viability, T/C [11]: 93.5%
- viability, T/C (second compound 3.16 µM, first compound 0.000316 µM): 97.2%
- viability, T/C (second compound 3.16 µM, first compound 0.001 µM): 101%
- viability, T/C (second compound 3.16 µM, first compound 0.00316 µM): 109%
- viability, T/C (second compound 3.16 µM, first compound 0.01 µM): 86.5%
- viability, T/C [12]: 91.1%
- viability, T/C [13]: 103%
- viability, T/C (second compound 10 µM, first compound 0.000316 µM): 95%
- viability, T/C (second compound 10 µM, first compound 0.001 µM): 97.7%
- viability, T/C (second compound 10 µM, first compound 0.00316 µM): 89%
- viability, T/C (second compound 10 µM, first compound 0.01 µM): 98.3%
- viability, T/C [14]: 102%
- viability, T/C [15]: 97%
